According to US11773086B2, “Fungal modulators” (TRUSTEES OF BOSTON UNIVERSITY, priority 2020, dated 2023):

Key:
[1] = system: FLC-resistant Candida auris; assay: Checkerboard (dose-response matrix) with fluconazole, FICI; type: cell-based
C. auris = assay: Intracellular fluconazole and azoffluxin detection by LC-MS; type: cell-based, Candida auris; settings: combination treatment vs high fluconazole alone, 1 hour
Text: FIGS. 3A-3B, and 4A-4B illustrate azoffluxin increases fluconazole (FLC) bioavailability by inhibiting Cdr1-mediated efflux in C. auris, as described above. FIG. 3A depicts the relative abundance of specific sterols determined in C. auris after an 18-hour treatment with the respective compounds (⋅ indicates combo treatment concentrations) using LC-MS. Values are plotted relative to the internal standard of cholesterol and error bars indicate standard deviation between technical triplicates. Significance was determined by an unpaired student t-test of each condition to untreated, (*) indicates a p-value<0.05 and (**) indicates a p-value<0.01. FIG. 3B depicts the intracellular concentrations of FLC and azoffluxin measured after treatment for 1 hour (conditions as in FIG. 3A) Error bars indicate standard deviation between technical triplicates. Significance was determined by an unpaired student t-test, (**) indicates a p-value<0.01. FIG. 4A depicts the quantified relative expression of a panel of putative efflux pumps in C. auris Ci6684. Expression of CDR1 (B9J08_000164), MDR1 (B9J08_003981), CDR4-1 (B9J08_000479), CDR4-2 (B9J08_002451), SNQ2-1 (B9J08_001125), and SNQ2-2 (B9J08_004452) was measured by RT-qPCR. […] FIG. 4B depicts expression of CDR1 (B9J08_000164) and CDR4-1 (B9J08_000479) measured by quantitative real-time PCR (RT-qPCR). […]

**Q.** Which interaction with fluconazole ([1]; Clade III isolate B12037 lacking Erg11 V125A/F126L and Mrr1 N647T) does the source give for `C=C(C)C[C@@H](O)COc1cc2c(cc1C1(c3cc4c(cc3OC[C@H](O)CC(=C)C)OCO4)C(=O)Nc3cc(F)ccc31)OCO2` [CMLD012336] here?
**A.** Its interaction with fluconazole is “potent synergistic interaction”.

**Q.** What about the “fractional inhibitory concentration index (FICI)” value ([1]; combination with fluconazole, C. auris Ci6684 (Erg11 Y132F), <0.5 = synergy) of the same compound?
**A.** Its value is 0.25.

**Q.** And the FICI ([1]; fractional inhibitory concentration index for enhancement of FLC activity in FLC-resistant Candida auris, <0.5 strong synergy, 2 = no synergy)?
**A.** The FICI was 0.130.

**Q.** What about the “potentiation of fluconazole across C. auris clades” value ([1]; isolates of the four major clades, Clade III the exception) of the same compound?
**A.** The value was “potentiated fluconazole in multiple isolates from three of the four major clades”.

**Q.** And the “increase in intracellular fluconazole” value (C. auris)?
**A.** Its value is ~2.5 fold.
